A short description of data set [1]: Human liver microsomes stability. The settings on record: human liver microsomes; for half-life at 2 μM / microsomal CLint at 2 μM: 2 μM compound, 0.5 mg/mL; for microsomal CLint at 2 μM: read-out: CLint (μL/min/mg protein); for CLint scaled at 2 μM: read-out: Scaled-up CLint. It is filed as in vitro ADME. The protocol: (§1) The objective of this study was to estimate in vitro metabolic stability of exemplary compounds of Formula (I) or a pharmaceutically acceptable salt, solvate, and/or prodrug thereof in pooled human, male rat, and male mouse liver microsomes. The concentrations of compounds in reaction systems were evaluated by LC-MS/MS for estimating the stability in pooled human, male rat, and male mouse liver microsomes. The in vitro intrinsic clearances of test compounds were determined as well.
(§2) A master solution in the “Incubation Plate” containing phosphate buffer, ultra-pure H2O, MgCl2 solution and liver microsomes was made according to Table 33. The mixture was pre-warmed at 37° C. water bath for 5 minutes.
(§3) 40 μL of 10 mM nicotinamide adenine dinucleotide phosphate (NADPH) solution was added to each well. The final concentration of NADPH was 1 mM. The negative control samples were prepared by replacing NADPH with 40 μL of ultra-pure H2O. Samples were prepared in duplicate. Negative controls were prepared in singlet.
(§4) The reaction was started with the addition of 4 μL of 200 μM exemplary test compounds of the disclosure or control compounds to each master solution to get the final concentration of 2 μM. This study was performed in duplicate.
(§5) Aliquots of 50 μL were taken from the reaction solution at 0, 15, 30, 45, and 60 minutes. The reaction solutions were stopped by the addition of 4 volumes of cold methanol with IS (100 nM alprazolam, 200 nM imipramine, 200 nM labet alol and 2 μM ketoprofen). Samples were centrifuged at 3,220 g for 40 minutes. Aliquot of 90 μL of the supernatant was mixed with 90 μL of ultra-pure H2O and then was used for LC-MS/MS analysis.
(§6) LC/MS analysis was performed for all samples from this study using a Shimadzu liquid chromatograph separation system equipped with degasser DGU-20A5R; solvent delivery unit LC-30AD; system controller SIL-30AC; column oven CTO-30A; CTC Analytics HTC PAL System. Mass spectrometric analysis was performed using a Triple Quad™ 5500 instrument.
(§7) All calculations were carried out using Microsoft Excel. Peak area ratios of test compound to internal standard (listed in the below table) were determined from extracted ion chromatograms.
(§8) All calculations were carried out using Microsoft Excel. Peak areas were determined from extracted ion chromatograms. The slope value, k, was determined by linear regression of the natural logarithm of the remaining percentage of the parent drug vs. incubation time curve.
(§9) The in vitro half-life (in vitro t1/2) was determined from the slope value:
(§10) Conversion of the in vitro t1/2(min) into the in vitro intrinsic clearance (in vitro CLint, in μL/min/mg proteins) was done using the following equation (mean of duplicate determinations): […]
(§11) A master solution in the “Incubation Plate” containing phosphate buffer, ultra-pure H2O, MgCl2 solution and liver microsomes was made according to Table 63. The mixture was pre-warmed at 37° C. water bath for 5 minutes.
(§12) 40 μL of 10 mM NADPH solution was added to each well. The final concentration of NADPH was 1 mM. The negative control samples were prepared by replacing NADPH with 40 μL of ultra-pure H2O. Samples were prepared in duplicate. Negative controls were prepared in singlet.
(§13) Conversion of the in vitro t1/2(min) into the in vitro intrinsic clearance (in vitro C Lt, in μL/min/mg proteins) was done using the following equation (mean of duplicate determinations): […]

A short description of data set [2]: Mouse liver microsomes stability. It is filed as in vitro ADME. The settings on record: mouse liver microsomes; for microsomal CLint at 2 μM / half-life at 2 μM / CLint scaled at 2 μM: male, pooled liver microsomes; for microsomal CLint at 2 μM: mouse, read-out: CLint (μL/min/mg protein); for microsomal CLint at 2 μM / half-life at 2 μM: 2 μM compound, 0.5 mg/mL; for CLint scaled at 2 μM: read-out: Scaled-up CLint. The protocol:
as §1, §2, §3, §4, §5, §6, §7, §8, §9, §10, §11, §12, §13

Each structure is given as a SMILES string.

The values that follow come from US20250257034A1, “INDOLE DERIVATIVES AS SEROTONERGIC AGENTS USEFUL FOR THE TREATMENT OF DISORDERS RELATED THERETO” (priority 2023, published 2025).

`COc1ccc2[nH]cc(CCN3CC[C@@H](OC)C3)c2c1` [(R) I-66, (R)-5-methoxy-3-(2-(3-methoxypyrrolidin-1-yl)ethyl)-1H-indole]: the “Predicted hepatic CL” value was 4.37 mL/min/kg in data set [1] and 36.55 mL/min/kg in data set [2]. Further, the half-life (in general, the time needed for the level to fall by half in the phase considered) at 2 μM amounted to 314 min in data set [1] and 98.5 min in data set [2]. Moreover, the microsomal CLint at 2 μM in data set [1] amounted to 4.42 µL/min/mg; in data set [2] it was 14.1 µL/min/mg. For the same compound, the “Remaining Percentage (%)” value is listed as 100.00% in data set [1] (With Cofactors, 0 min); 98.13% in data set [1] (With Cofactors, 30 min); 87.59% in data set [1] (With Cofactors, 60 min); 100.00% in data set [1] (Without Cofactors, 0 min); 100.00% in data set [1] (Without Cofactors, 30 min); 98.15% in data set [1] (Without Cofactors, 60 min). Also, the “Remaining Percentage (%)” value in data set [2] (With Cofactors, 0 min) came to 100.00%; in data set [2] (With Cofactors, 30 min), 72.95%; in data set [2] (With Cofactors, 60 min) it was 65.58%; in data set [2] (Without Cofactors, 0 min), 100.00%; in data set [2] (Without Cofactors, 30 min) it was 104.20%; in data set [2] (Without Cofactors, 60 min) it was 100.00%. The intrinsic metabolic clearance (CLint scaled) (usually the rate of metabolic loss divided by the concentration) at 2 μM is 5.54 mL/min/kg in data set [1] and 61.5 mL/min/kg in data set [2].
Turning to `COc1ccc2[nH]cc(CCN3CC[C@@H](OC(F)F)C3)c2c1` [(R) I-67, (R)-3-(2-(3-(Difluoromethoxy)pyrrolidin-1-yl)ethyl)-5-methoxy-1H-indole], the “Predicted hepatic CL” value in data set [1] was 15.34 mL/min/kg; in data set [2], 66.25 mL/min/kg. For the same compound, the half-life at 2 μM in data set [1] was determined as 29.3 min; in data set [2] it was 24.1 min. The microsomal CLint at 2 μM in data set [1] came out at 47.3 µL/min/mg; in data set [2] it was 57.4 µL/min/mg. Moreover, the “Remaining Percentage (%)” value turned out to be 100.00% in data set [1] (With Cofactors, 0 min); 47.22% in data set [1] (With Cofactors, 30 min); 24.23% in data set [1] (With Cofactors, 60 min); 100.00% in data set [1] (Without Cofactors, 0 min); 79.21% in data set [1] (Without Cofactors, 30 min); 71.91% in data set [1] (Without Cofactors, 60 min). Besides, the “Remaining Percentage (%)” value in data set [2] (With Cofactors, 0 min) came to 100.00%; in data set [2] (With Cofactors, 30 min), 43.11%; in data set [2] (With Cofactors, 60 min) it was 17.88%; in data set [2] (Without Cofactors, 0 min), 100.00%; in data set [2] (Without Cofactors, 30 min), 103.14%; in data set [2] (Without Cofactors, 60 min), 109.43%. Also, the values for the intrinsic metabolic clearance (CLint scaled) at 2 μM in data set [1] and in data set [2] were 59.3 mL/min/kg and 251 mL/min/kg, respectively.
As to `COc1ccc2[nH]cc(CCN3CC[C@H](OC(F)F)C3)c2c1` [(S) I-67, (S)-3-(2-(3-(Difluoromethoxy)pyrrolidin-1-yl)ethyl)-5-methoxy-1H-indole], the “Predicted hepatic CL” value is 13.30 mL/min/kg in data set [1] and 69.41 mL/min/kg in data set [2]. Further, the half-life at 2 μM worked out at 46.8 min in data set [1] and 20 min in data set [2]. For the same compound, the results for the microsomal CLint at 2 μM in data set [1] and in data set [2] were 29.6 µL/min/mg and 69.3 µL/min/mg, respectively. Besides, the “Remaining Percentage (%)” value in data set [1] (With Cofactors, 0 min) was found to be 100.00%; in data set [1] (With Cofactors, 30 min), 66.20%; in data set [1] (With Cofactors, 60 min), 41.10%; in data set [1] (Without Cofactors, 0 min) it was 100.00%; in data set [1] (Without Cofactors, 30 min) it was 98.68%; in data set [1] (Without Cofactors, 60 min), 100.00%. For the same compound, the “Remaining Percentage (%)” value came to 100.00% in data set [2] (With Cofactors, 0 min); 34.21% in data set [2] (With Cofactors, 30 min); 12.49% in data set [2] (With Cofactors, 60 min); 100.00% in data set [2] (Without Cofactors, 0 min); 103.46% in data set [2] (Without Cofactors, 30 min); 100.35% in data set [2] (Without Cofactors, 60 min). Besides, the CLint scaled at 2 μM stood at 37.2 mL/min/kg in data set [1] and 303 mL/min/kg in data set [2].
For the compound `CN(C)CCc1c[nH]c2ccc(OCCOC(F)F)cc12` [Compound I-128, 2-(5-(2-(Difluoromethoxy)ethoxy)-1H-indol-3-yl)-N,N-dimethylethan-1-amine], the entries for the “Predicted hepatic CL” value in data set [1] and in data set [2] were 16.28 mL/min/kg and 68.78 mL/min/kg, respectively. The half-life at 2 μM was 22.8 min in data set [1] and 20.8 min in data set [2]. For the same compound, the microsomal CLint at 2 μM was determined as 60.8 µL/min/mg in data set [1] and 66.7 µL/min/mg in data set [2]. Also, the “Remaining Percentage (%)” value turned out to be 100.00% in data set [1] (With Cofactors, 0 min); 41.35% in data set [1] (With Cofactors, 30 min); 16.15% in data set [1] (With Cofactors, 60 min); 100.00% in data set [1] (Without Cofactors, 0 min); 39.57% in data set [1] (Without Cofactors, 30 min); 16.12% in data set [1] (Without Cofactors, 60 min). The “Remaining Percentage (%)” value was 100.00% in data set [2] (With Cofactors, 0 min); 37.09% in data set [2] (With Cofactors, 30 min); 13.52% in data set [2] (With Cofactors, 60 min); 100.00% in data set [2] (Without Cofactors, 0 min); 89.52% in data set [2] (Without Cofactors, 30 min); 87.90% in data set [2] (Without Cofactors, 60 min). Further, the results for the CLint scaled at 2 μM in data set [1] and in data set [2] were 76.2 mL/min/kg and 292 mL/min/kg, respectively.
In the case of `CN(CCOC(F)F)CCc1c[nH]c2ccccc12` [Compound I-130, N-(2-(1H-Indol-3-yl)ethyl)-2-(difluoromethoxy)-N-methylethan-1-amine], the “Predicted hepatic CL” value in data set [1] is given as 18.58 mL/min/kg; in data set [2], 80.41 mL/min/kg. Further, the half-life at 2 μM in data set [1] came to 9.6 min; in data set [2], 8.03 min. Besides, the microsomal CLint at 2 μM in data set [1] is 144 µL/min/mg; in data set [2] it was 173 µL/min/mg. Further, the “Remaining Percentage (%)” value in data set [1] (With Cofactors, 0 min) was 100.00%; in data set [1] (With Cofactors, 30 min), 11.46%; in data set [1] (With Cofactors, 60 min), 0.75%; in data set [1] (Without Cofactors, 0 min), 100.00%; in data set [1] (Without Cofactors, 30 min), 99.47%; in data set [1] (Without Cofactors, 60 min), 94.15%. Further, the “Remaining Percentage (%)” value in data set [2] (With Cofactors, 0 min) stood at 100.00%; in data set [2] (With Cofactors, 30 min), 7.52%; in data set [2] (With Cofactors, 60 min), 0.87%; in data set [2] (Without Cofactors, 0 min), 100.00%; in data set [2] (Without Cofactors, 30 min) it was 95.65%; in data set [2] (Without Cofactors, 60 min), 104.89%. The figures for the intrinsic metabolic clearance (CLint scaled) at 2 μM in data set [1] and in data set [2] were 181 mL/min/kg and 755 mL/min/kg, respectively.
